Paper PMC6112376, “Comprehensive Analyses and Prioritization of Tox21 10K Chemicals Affecting Mitochondrial Function by in-Depth Mechanistic Studies” (Environmental Health Perspectives, 2018)
Read-outs that look alike come from different tables or passages of the source.

Legend:
[1] = tested on: Caenorhabditis elegans (Bristol N2); test: C. elegans larval development and growth assay; settings: for minimal effective concentration: Caenorhabditis elegans, read-out: LEC EXT: lowest effect concentration for extinction, a measure of nematode size
[2] = tested on: Caenorhabditis elegans strain PE255; test: In vivo C. elegans ATP status assay; settings: for minimal effective concentration: Caenorhabditis elegans, read-out: LEC LUM: lowest effect concentration for luminescence, a measure of nematode ATP content
[3] = tested on: rat primary hepatocytes
[4] = tested on: HepG2 cells; settings: for IC50: read-out: MMP assays IC50 (µM) HepG2
[5] = tested on: HepG2 cells; settings: cited from earlier work
[6] = tested on: rat primary hepatocytes; test: MMP assay in rat primary hepatocytes; settings: for IC50: read-out: MMP assays IC50 (µM) Rat Hepatocytes
[7] = read-out: MMP assays IC50 (µM), qHTS-HepG2
[8] = read-out: MMP assays IC50 (µM) qHTS-HepG2

Row | Molecule | MMP assays efficacy (%) Rat Hepatocytes [3] | MMP assays efficacy (%) HepG2 [4] | IC50 [4] [µM] | MMP assays efficacy (%) qHTS-HepG2 [5] | IC50 [5, 7] [µM] | IC50 [6] [µM] | IC50 [5, 8] [µM] | further results
1 | O=C1CCC(N2C(=O)c3ccccc3C2=O)C(=O)N1 (centres unmarked) [Thalidomide] | – | – | – | – | – | – | – | EXT: mean difference in nematode size relative to plate controls ([1]; 0.5 µM): 0.09319; EXT: mean difference in nematode size relative to plate controls ([1]; 1 µM): -0.00358; EXT: mean difference in nematode size relative to plate controls ([1]; 5 µM): 0.07925; EXT: mean difference in nematode size relative to plate controls ([1]; 10 µM): 0.0474; EXT: mean difference in nematode size relative to plate controls ([1]; 25 µM): 0.0694; EXT: mean difference in nematode size relative to plate controls ([1]; 50 µM): 0.4966; EXT: mean difference in nematode size relative to plate controls ([1]; 75 µM): 0.9805; EXT: mean difference in nematode size relative to plate controls ([1]; 100 µM): 0.9456; minimal effective concentration [1]: 50 µM; LUM: mean difference in luminescence (ATP content) relative to plate controls ([2]; 0.5 µM): 0.03143; LUM: mean difference in luminescence (ATP content) relative to plate controls ([2]; 1 µM): 0.01645; LUM: mean difference in luminescence (ATP content) relative to plate controls ([2]; 5 µM): 0.01511; LUM: mean difference in luminescence (ATP content) relative to plate controls ([2]; 10 µM): 0.04635; LUM: mean difference in luminescence (ATP content) relative to plate controls ([2]; 25 µM): 0.07311; LUM: mean difference in luminescence (ATP content) relative to plate controls ([2]; 50 µM): -0.2127; LUM: mean difference in luminescence (ATP content) relative to plate controls ([2]; 75 µM): 0.4289; LUM: mean difference in luminescence (ATP content) relative to plate controls ([2]; 100 µM): 0.7958; minimal effective concentration [2]: 75 µM
2 | [F][Sn]([c]1ccccc1)([c]1ccccc1)[c]1ccccc1 [Triphenyltin fluoride] | -81±23% | -104% | 1.78 | -106±5% | 0.47 ± 0.31 | 6.17 ± 2.51 | – | –
3 | [OH-].c1cc[c]([Sn+]([c]2ccccc2)[c]2ccccc2)cc1 [Triphenyltin hydroxide] | -118±53% | -94% | 1.12 | -95±9% | 0.12 ± 0.03 | 14.8 ± 5.12 | – | –
4 | CC(C)[C@@H]1NC(=O)[C@H](C)OC(=O)[C@@H](C(C)C)NC(=O)[C@@H](C(C)C)OC(=O)[C@H](C(C)C)NC(=O)[C@H](C)OC(=O)[C@@H](C(C)C)NC(=O)[C@@H](C(C)C)OC(=O)[C@H](C(C)C)NC(=O)[C@H](C)OC(=O)[C@@H](C(C)C)NC(=O)[C@@H](C(C)C)OC1=O [Valinomycin] | – | – | – | – | – | – | – | EXT: mean difference in nematode size relative to plate controls ([1]; 0.5 µM): 0.09961; EXT: mean difference in nematode size relative to plate controls ([1]; 1 µM): 0.01293; EXT: mean difference in nematode size relative to plate controls ([1]; 5 µM): -0.07954; EXT: mean difference in nematode size relative to plate controls ([1]; 10 µM): -0.01187; EXT: mean difference in nematode size relative to plate controls ([1]; 25 µM): 0.0497; EXT: mean difference in nematode size relative to plate controls ([1]; 50 µM): 0.3415; EXT: mean difference in nematode size relative to plate controls ([1]; 75 µM): 0.411; EXT: mean difference in nematode size relative to plate controls ([1]; 100 µM): 0.3807; minimal effective concentration [1]: 50 µM; LUM: mean difference in luminescence (ATP content) relative to plate controls ([2]; 0.5 µM): -0.05222; LUM: mean difference in luminescence (ATP content) relative to plate controls ([2]; 1 µM): -0.06335; LUM: mean difference in luminescence (ATP content) relative to plate controls ([2]; 5 µM): 0.1958; LUM: mean difference in luminescence (ATP content) relative to plate controls ([2]; 10 µM): 0.3328; LUM: mean difference in luminescence (ATP content) relative to plate controls ([2]; 25 µM): 1.023; LUM: mean difference in luminescence (ATP content) relative to plate controls ([2]; 50 µM): 0.6115; LUM: mean difference in luminescence (ATP content) relative to plate controls ([2]; 75 µM): 0.5181; LUM: mean difference in luminescence (ATP content) relative to plate controls ([2]; 100 µM): 0.5717; minimal effective concentration [2]: 25 µM
5 | C=C1CC[C@H](O)C/C1=C/C=C1\CCC[C@]2(C)[C@@H]([C@H](C)CCCC(C)C)CC[C@@H]12 [Vitamin D3] | inactive | inactive | – | inactive | – | – | – | MMP assays IC50 (µM) HepG2 [4]: inactive; MMP assays IC50 (µM) qHTS-HepG2 [5]: inactive; MMP assays IC50 (µM) Rat Hepatocytes [6]: inactive
6 | ClC1C(Cl)C(Cl)C(Cl)C(Cl)C1Cl (stereo not drawn) [alpha-1,2,3,4,5,6-Hexachlorocyclohexane] | -54±20% | inactive | – | -54±7% | – | 39.8 | 49 ± 6.35 | MMP assays IC50 (µM) HepG2 [4]: inactive
7 | CCCCC/C(=C\c1ccccc1)CO [alpha-Amylcinnamyl alcohol] | -85±44% | -69% | 56.2 | -87±10% | – | 4.83 ± 4.07 | 38.1 ± 17.4 | –
8 | Nc1nc(N)c(N)c(N)n1.O=S(=O)(O)O [tetra-Aminopyrimidine sulfate] | -55±32% | -87% | 25.1 | -117±30% | 18.7 ± 11.4 | 42.1 ± 30.6 | – | –
9 | Cresyl diphenyl phosphate | -76±37% | -91% | 3.55 | – | – | 23 ± 9 | 2.38 ± 2.32 | –
10 | Dinocap | -93±7% | -100% | 0.63 | -94±10% | – | 4.1 ± 2.16 | 0.34 ± 0.3 | –
11 | Mepartricin | -65±17% | -99% | 6.9 | -82±8% | 23.2 ± 6.59 | 27.7 ± 4.48 | – | –
12 | Methyl violet | -81±20% | -100% | 0.44 | -121±3% | 0.07 ± 0.03 | 1.73 | – | –
13 | Tributyltin chloride | -136±58% | -96% | 0.89 | -97±11% | 0.11 ± 0.02 | 8.95 ± 1.03 | – | –
